In patent US20030044946A1 (priority 2001, published 2003):
Where two headings read alike, the source gives them in different places.

How the values were obtained:
aconitase = aconitase inactivation after treatment of yeast cells; assay type: cell-based, Saccharomyces cerevisiae; conditions: wild type cells; 1 μM antimycin A or 1 mM paraquat; data not shown
Protocol: Cells were inoculated at an OD600 of 0.1 in SDC medium and harvested at the indicated times. Whole cell extracts were obtained by glass bead lysis under argon in 50 mM Tris 7.2, 150 mM NaCl, 5 mM EDTA, and 0.2 mM PMSF with an equal volume of 0.5 mm acid washed glass beads, and vortexing for 6 cycles of 30 seconds followed by 2 minutes of cooling. After centrifugation, the supernatants were aliquoted, flash frozen, and stored at −70° C. Because of the instability of 4Fe4S clusters in air, the extraction procedures were performed as rapidly as possible, under an inert atmosphere (argon). Furthermore, aliquots kept at −70° C. were only thawed immediately before the assay. Aconitase activity was measured spectrophotometrically as described (S. Melov, et al., Science 289, 1567-9 (2000)). Briefly, the linear absorbance change at 240 nm (cis-aconitate disappearance) was followed in a reaction mixture containing 1 mM cis-aconitate, 0.5 M NaCl, and 0.1 M Tris 7.4. For iron-sulfur cluster reactivation experiments, 1 mM ferric sulfate and 1 mM sodium sulfide (Na2S) was added to the cuvette containing all the reagents required for the aconitase assay. Activity was measured as described above.

[1] = test system: wild type cells (strain DBY746)
ras2Δ (EG252) cells = conditions: ras2 mutants; paraquat 1 mM, 7-day treatment

Compound | effect on aconitase (aconitase) | effect on survival (viability) of wild type cells [1] | toxicity to wild type cells [1] | survival after paraquat treatment ([1]; Saccharomyces cerevisiae) [%] | initial viability retained after paraquat treatment (ras2Δ (EG252) cells) | toxicity to sod2Δ mutants (sod2Δ mutants; effect on life span) | toxicity to sod2Δ mutants (sod2Δ mutants)
C[n+]1ccc(-c2cc[n+](C)cc2)cc1 [paraquat] | reversibly inactivates aconitase | early viability loss | toxic | 5 | over 70% | particularly toxic | –
antimycin A | reversibly inactivates aconitase | early viability loss | toxic | – | – | – | particularly toxic
